This is an account of results in US20250282768A1 (Janssen Pharmaceutica NV, priority 2022, published 2025).

This assay deals with p-IKKa levels in L363 (NIK translocated multiple myeloma) cells. As to the kind of experiment: Assay 2: Effect of compounds on p-IKKa levels in L363 (NIK translocated multiple myeloma) cells. The format is cell-based. The conditions noted are these: Homo sapiens, L-363, 6 h, read-out: Assay 2 IC50 (nM), p-IKKa (Ser 176/180) in BAFF stimulated L363 cells with MG132, 6 h; average if tested more than once. As for the experimental part: Assay 2: Effect of Compounds on p-IKKa Levels in L363 (NIK Translocated Multiple Myeloma) Cells
All compounds tested were dissolved and serially diluted in DMSO, 1:3 dilution for 11 points in an Echo compatible plate. 100% DMSO was added to columns 12 and 24 of the plate to serve as high and low signal controls. This compound plate was used to spot 20 nL of compound or DMSO into a Greiner 384 well TC plate (781080). The final DMSO concentration was 0.3% (v/v) in cell assays. Human L363 cells (ATCC) were cultured in RPM11640 medium supplemented with GlutaMax, non-essential amino acids, sodium pyruvate and 10% fetal bovine serum. Cells were routinely maintained at densities of 0.2×10^6 cells per ml—2×10^6 cells per mL at 37° C. in a humidified 5% CO2 atmosphere incubator. Cells were passaged twice a week splitting back to obtain the low density. The day before the assay, cells were washed twice in HBSS (Hank's Balanced Salt Solution), resuspended in Dulbecco's Modified Eagle Medium (DMEM)+0.5% IgG and protease free BSA (Jackson Immuno Research Laboratories), +/−250 ng/ml recombinant human B-cell activating factor (BAFF/BLyS/TNFSF13B) and incubated overnight at 37° C. in a humidified 5% CO2 atmosphere (bulk stimulation with or without BAFF). The next day, the cell concentration was adjusted to 1×10^7 cells/ml in DMEM+/−250 ng/ml BAFF +/−10 μM MG132 and plated at 10 μl/well into compound or DMSO spotted 384 well TC plates. Seeded cells were incubated at 37° C. in a humidified 5% CO2 atmosphere for 6 h. After 6 h, the plates were removed from the incubator and cell lysis was achieved by the addition of 2.5 μl 5×lysis buffer containing protease and phosphatase inhibitors, followed by shaking on a plate shaker at room temperature for 15 min. At the end of this incubation, lysed cells were sequentially treated and incubated with acceptor and donor bead mixes according to the manufacturer's protocol for a 1 plate/2-incubation suspension cell assay (AlphaLISA SureFire Ultra p-IKKa (Ser 176/180) Assay Kit (Perkin Elmer). Plates were read using an EnVision Multilabel Plate Reader (Perkin Elmer). Within an experiment, a concentration response curve for each compound was run in duplicate. The signal obtained in the test wells was normalized using high signal (BAFF stimulated cells, DMSO, MG132) and low signal (unstimulated cells, DMSO) controls. To determine the IC50, a sigmoidal curve was fitted to the plot of % inhibition versus Log10 compound concentration.
On to `C[C@H](Nc1nccc(-c2cccc(-c3cc([C@]4(O)CCN(C)C4=O)on3)n2)n1)c1cnn(C)c1` (single isomer, unassigned) [Example 70], for which the IC50 was above 500 nM. `CN1CC[C@@](O)(c2cnn(-c3cccc(-c4ccnc(Nc5cnn(C)c5)n4)n3)c2)C1=O` (single isomer, unassigned) [Example 76]: the IC50 is above 500 nM. Turning to `CN1CC[C@](O)(c2cnn(-c3cccc(-c4ccnc(Nc5cnn(C)c5)n4)n3)c2)C1=O` (single isomer, unassigned) [Example 77], the IC50 fell in the range of 50 to 500 nM. Consider `CN1CC[C@@](O)(c2cnc(-c3cccc(-c4ccnc(Nc5ccn(C)n5)n4)n3)s2)C1=O` (single isomer, unassigned) [Example 78], for which the IC50 is above 500 nM. As for `CN1CC[C@](O)(c2cnc(-c3cccc(-c4ccnc(Nc5ccn(C)n5)n4)n3)s2)C1=O` (single isomer, unassigned) [Example 79], the IC50 is above 500 nM.

Consider `CN1CC[C@](O)(c2csc(-c3cccc(-c4ccnc(Nc5ccn(C)n5)n4)n3)n2)C1=O` (single isomer, unassigned) [Example 80], for which the IC50 is above 500 nM. The same measure for `CN1CC[C@@](O)(c2csc(-c3cccc(-c4ccnc(Nc5ccn(C)n5)n4)n3)n2)C1=O` (single isomer, unassigned) [Example 81]: above 500 nM. In the case of `CN1CC[C@@](O)(c2ncc(-c3cccc(-c4ccnc(Nc5ccn(C)n5)n4)n3)s2)C1=O` (single isomer, unassigned) [Example 82], the IC50 was above 500 nM. In the case of `CN1CC[C@](O)(c2ncc(-c3cccc(-c4ccnc(Nc5ccn(C)n5)n4)n3)s2)C1=O` (single isomer, unassigned) [Example 83], the IC50 was 50 to 500 nM. In the case of `CN1CC[C@](O)(c2cc(-c3cccc(-c4ccnc(Nc5ccn(C)n5)n4)n3)[nH]n2)C1=O` (single isomer, unassigned) [Example 84], the IC50 was above 500 nM.

For the compound `CN1CC[C@@](O)(c2cc(-c3cccc(-c4ccnc(Nc5ccn(C)n5)n4)n3)[nH]n2)C1=O` (single isomer, unassigned) [Example 85], the IC50 was 50 to 500 nM. On to `CN1CC[C@](O)(c2cn(-c3cccc(-c4ccnc(Nc5ccn(C)n5)n4)n3)cn2)C1=O` (single isomer, unassigned) [Example 87], for which the IC50 is above 500 nM. `CN1CC[C@@](O)(c2cc(-c3cccc(-c4ccnc(Nc5cnn(C)c5Cl)n4)n3)n[nH]2)C1=O` (single isomer, unassigned) [Example 104]: the IC50 was above 500 nM. Take `CN1CC[C@](O)(c2cc(-c3cccc(-c4ccnc(Nc5cnn(C)c5Cl)n4)n3)n[nH]2)C1=O` (single isomer, unassigned) [Example 105]: the IC50 fell in the range of 50 to 500 nM.

Take `CN1CC[C@](O)(c2nccn2-c2cccc(-c3ccnc(Nc4cnn(C)c4Cl)n3)n2)C1=O` (single isomer, unassigned) [Example 106, (*S)-3-(1-(6-(2-((5-Chloro-1-methyl-1H-pyrazol-4-yl)amino)pyrimidin-4-yl)pyridin-2-yl)-1H-imidazol-2-yl)-3-hydroxy-1-methylpyrrolidin-2-one]: the IC50 was above 500 nM. As for `CN1CC[C@@](O)(c2cn(-c3cccc(-c4ccnc(Nc5cnn(C)c5Cl)n4)n3)cn2)C1=O` (single isomer, unassigned) [Example 107], the IC50 is above 500 nM. The same measure for `CN1CC[C@](O)(c2cn(-c3cccc(-c4ccnc(Nc5cnn(C)c5Cl)n4)n3)cn2)C1=O` (single isomer, unassigned) [Example 108]: 50 to 500 nM; for `C[C@@H]1Cn2nc(Nc3nccc(-c4cccc(-c5cc([C@]6(O)CCN(C)C6=O)on5)n4)n3)cc2CO1` (single isomer, unassigned) [Example 114, (R)-3-Hydroxy-1-methyl-3-(3-(6-(2-(((*R)-6-methyl-6,7-dihydro-4H-pyrazolo[5,1-c][1,4]oxazin-2-yl)amino)pyrimidin-4-yl)pyridin-2-yl)isoxazol-5-yl)pyrrolidin-2-one]: below 50 nM. `C[C@H]1Cn2nc(Nc3nccc(-c4cccc(-c5cc([C@]6(O)CCN(C)C6=O)on5)n4)n3)cc2CO1` (single isomer, unassigned) [Example 115, (R)-3-Hydroxy-1-methyl-3-(3-(6-(2-(((*S)-6-methyl-6,7-dihydro-4H-pyrazolo[5,1-c][1,4]oxazin-2-yl)amino)pyrimidin-4-yl)pyridin-2-yl)isoxazol-5-yl)pyrrolidin-2-one]: the IC50 was in the range of 50 to 500 nM. Consider `CC1OCCn2ncc(Nc3nccc(-c4cccc(-c5cc([C@@]6(O)C(=O)N(C)CC6(F)F)on5)n4)n3)c21` (single isomer, unassigned) [Example 116, (R)-4,4-Difluoro-3-hydroxy-1-methyl-3-(3-(6-(2-(((*R)-4-methyl-6,7-dihydro-4H-pyrazolo[5,1-c][1,4]oxazin-3-yl)amino)pyrimidin-4-yl)pyridin-2-yl)isoxazol-5-yl)pyrrolidin-2-one], for which the IC50 lay within 50 to 500 nM. The same measure for `C[C@@H](Nc1nccc(-c2cccc(-n3cc([C@]4(O)CCN(C)C4=O)nn3)n2)n1)c1cnn(C)c1` (single isomer, unassigned) [Example 118]: above 500 nM; for `C[C@H](Nc1nccc(-c2cccc(-n3cc([C@]4(O)CCN(C)C4=O)nn3)n2)n1)c1cnn(C)c1` (single isomer, unassigned) [Example 119]: below 50 nM; for `CN1CC[C@@](O)(c2cc(-c3cccc(-c4ccnc(Nc5cnn(C)c5C(F)(F)F)n4)n3)no2)C1=O` (single isomer, unassigned) [Example 132, (*R)-3-Hydroxy-1-methyl-3-(3-(6-(2-((1-methyl-5-(trifluoromethyl)-1H-pyrazol-4-yl)amino)pyrimidin-4-yl)pyridin-2-yl)isoxazol-5-yl)pyrrolidin-2-one]: below 50 nM. As for `CN1CC[C@@](O)(c2cc(-c3cccc(-c4ccnc(Nc5cnn([C@H]6CCN(C7COC7)C6)c5)n4)n3)no2)C1=O` (single isomer, unassigned) [Example 140], the IC50 was below 50 nM. Consider `CN1CC[C@@](O)(c2cc(-c3cccc(-c4ccnc(Nc5cnn([C@@H]6CCN(C7COC7)C6)c5)n4)n3)no2)C1=O` (single isomer, unassigned) [Example 141], for which the IC50 is below 50 nM.

Turning to `C[C@@H](Nc1nccc(-c2cccc(-n3cc([C@]4(O)CCN(C)C4=O)nn3)n2)n1)c1ncccn1` (single isomer, unassigned) [Example 142], the IC50 was 50 to 500 nM. The same measure for `C[C@H](Nc1nccc(-c2cccc(-n3cc([C@]4(O)CCN(C)C4=O)nn3)n2)n1)c1ncccn1` (single isomer, unassigned) [Example 143]: 50 to 500 nM. The same measure for `C[C@@H](Nc1nccc(-c2cccc(-c3cc([C@]4(O)CCN(C)C4=O)on3)n2)n1)c1cn[nH]c1` (single isomer, unassigned) [Example 148]: below 50 nM; for `C[C@H](Nc1nccc(-c2cccc(-c3cc([C@]4(O)CCN(C)C4=O)on3)n2)n1)c1cn[nH]c1` (single isomer, unassigned) [Example 149]: 50 to 500 nM; for `Cc1noc([C@@H](C)Nc2nccc(-c3cccc(-c4cc([C@]5(O)CCN(C)C5=O)on4)n3)n2)n1` (single isomer, unassigned) [Example 150]: 50 to 500 nM.

Turning to `Cc1noc([C@H](C)Nc2nccc(-c3cccc(-c4cc([C@]5(O)CCN(C)C5=O)on4)n3)n2)n1` (single isomer, unassigned) [Example 151], the IC50 was 50 to 500 nM. In the case of `C[C@@H](Nc1nccc(-c2cccc(-c3cc([C@]4(O)CCN(C)C4=O)on3)n2)n1)c1ccncc1` (single isomer, unassigned) [Example 154], the IC50 fell in the range of 50 to 500 nM. Regarding `C[C@H](Nc1nccc(-c2cccc(-c3cc([C@]4(O)CCN(C)C4=O)on3)n2)n1)c1ccncc1` (single isomer, unassigned) [Example 155], the IC50 is 50 to 500 nM.

In the case of `Cc1cccnc1[C@@H](C)Nc1nccc(-c2cccc(-c3cc([C@]4(O)CCN(C)C4=O)on3)n2)n1` (single isomer, unassigned) [Example 156], the IC50 is 50 to 500 nM. Take `Cc1cccnc1[C@H](C)Nc1nccc(-c2cccc(-c3cc([C@]4(O)CCN(C)C4=O)on3)n2)n1` (single isomer, unassigned) [Example 157]: the IC50 is above 500 nM. The same measure for `C[C@@H](Nc1nccc(-c2cccc(-c3cc([C@]4(O)CCN(C)C4=O)on3)n2)n1)c1cnc2ccccn12` (single isomer, unassigned) [Example 160]: above 500 nM.
